From patent publication US20170151299A1, “EXTRACTS OF SANTOLINA CHAMAECYPARISSUS” (priority 2014, published 2017)
Converted amounts (≈) assume the structure as drawn. Where two headings read alike, the source gives them in different places.

Legend:
[1] = tested on: Pseudomonas aeruginosa; experiment: 96-well microtiter plate growth inhibition assay; type: cell-based; conditions: for inhibition: 200 mg/mL sample at 2% in well (positive standard 0.4%)
Experimental: (§1) Antimicrobial activity of the crude extracts was determined using a 96-well microtiter plate assay based on growth inhibition. The assay was performed on […] different microbial strains, chosen according to the European Pharmacopoeia (ATCC references): Staphylococcus aureus ([…]), Escherichia coli (gram-negative bacteria), Pseudomonas aeruginosa ([…]), Propionibacterium acnes (anaerobic gram-positive bacteria), Aspergillus niger (fungus) and Candida albicans (yeast).
(§2) Samples for antimicrobial assay were prepared as follows: crude extracts were diluted at 200 mg/mL in a mixture of appropriate solvents, e.g. ethanol and water (60:40 v/v) or pure dimethylsulfoxide. After solubilization, the solutions were filtrated on 0.45 μm syringe filters.
(§3) The assay was performed for each strain according as follows: samples (at 200 mg/mL) were first diluted to 4% in water, then to 2% and 0.2% in wells. Final concentrations were also 0.4 and 0.04% of crude extracts in wells. Each concentration was assessed in replicate with one supplementary control well containing no microbial strain. For the assay at 2%, samples were mixed up in the wells with growth medium (95 μL) and microbial suspension (representing an absorbance of 0.6 for C. albicans, S. aureus and P. aeruginosa and 40 spores/μL for A. niger). For the assay at 0.2%, samples were first diluted to 0.2% with water in the wells. Negative controls constituted of the solvent mixture used to prepare the sample solutions, and positive controls with a synthetic preservative (methyl-paraben and/or phenoxyethanol, positive standard) were also prepared. Results were also compared with those obtained using a commercial natural preservative (commercial preservative). The 96-well plates were incubated at 25° C.
(§4) The absorbance was read for each plate at 620 nm 24, 48 and 72 hours after the beginning of the incubation to evaluate the growth of each microorganism in presence of crude extracts.
(§5) The results were expressed as a percentage of growth inhibition by the samples for each microorganism.

[2] = tested on: Aspergillus niger; experiment: 96-well microtiter plate growth inhibition assay; type: cell-based; conditions: for inhibition at 200000 µg/mL (stock): 200 mg/mL sample at 2% in well (positive standard 0.4%)
Experimental: as §1, §2, §3, §4, §5

[3] = tested on: Staphylococcus aureus; experiment: 96-well microtiter plate growth inhibition assay; type: cell-based; conditions: for inhibition at 200000 µg/mL (stock): 200 mg/mL sample at 2% in well (positive standard 0.4%)
Experimental: as §1, §2, §3, §4, §5

[4] = tested on: Candida albicans; experiment: 96-well microtiter plate growth inhibition assay; type: cell-based; conditions: for inhibition: 200 mg/mL sample at 2% in well (positive standard 0.4%)
Experimental: as §1, §2, §3, §4, §5

[5] = tested on: Propionibacterium acnes; experiment: Minimum inhibitory concentration (MIC); type: cell-based; conditions: Cutibacterium acnes; Propionibacterium acnes (anaerobic); read-out: MIC (mg/mL) P. acnes
Experimental: In a second step for the optimized extract of S. chamaecyparissus, the minimum inhibitory concentration (MIC) and the minimum bactericidal concentration (MBC) were also measured including E. coli and P. acnes. […] The MBC is the lowest concentration of antibacterial agent required to kill a particular bacterium, that is to say to reduce the viability of the initial bacterial inoculum by >99.9%. The dilutions were run in triplicate for the MIC and MBC test. At the end of the incubation, the tubes were read for the growth inhibition and then the MBC was determined by sampling all the macroscopically clear tubes and the first turbid tube in the series.
The results were expressed in mg/mL of extract.
The optimized extract was then assessed for its antimicrobial activity and more particularly in order to determine the minimum inhibitory concentration for Propionibacterium acnes (gram-positive bacteria). Methyl paraben and phenoxyethanol, as universal antimicrobial agents, were used as positive control. Due to the a higher active substance (I) content, the impact on the antimicrobial activity and more particularly on an anaerobic bacteria was evaluated.

[6] = type: physicochemical
Experimental: The pure compound appeared to be unstable once isolated, and particularly in aqueous and acid conditions. Since antimicrobial assays were performed in water, its antimicrobial activity could not be evaluated as for crude extracts or plant fractions. Thus, the inventors tried to establish a relationship between antimicrobial activity and active substance content in crude extracts.

[7] = 48 h, read-out: Growth inhibition (%) 48 h, 2%
[8] = 72 h, read-out: Growth inhibition (%) 72 h, 2%
[9] = medium inhibition at 2%, Table 2
[10] = 24 h, read-out: Growth inhibition (%) 24 h, 2%

Compound	inhibition [1, 7] [%]	inhibition [1, 8] [%]	Review [1, 9]	inhibition at 200000 µg/mL (stock) [2, 7] [%]	inhibition at 200000 µg/mL (stock) [2, 8] [%]	Review [2, 9]	inhibition at 200000 µg/mL (stock) [3, 10] [%]	inhibition at 200000 µg/mL (stock) [3, 7] [%]	Review [3, 9]	inhibition [4, 10] [%]	inhibition [4, 7] [%]	Review [4, 9]	MIC [5] [mg/mL]	stability once isolated [6]
COC(=O)c1ccc(O)cc1 [Positive standard, Methylparaben]	75	81	++ (medium inhibition comprised between 70% and 90%)	100	100	+++ (medium inhibition greater or equal to 90%)	80	93	++ (medium inhibition comprised between 70% and 90%)	99	100	+++ (medium inhibition greater or equal to 90%)	2.53 (≈ 16.6 mM)	
CC#CC#C/C=C1/C=CC2(OC=CC2OC(C)=O)O1 (centres unmarked) [pure compound, 1,6-dioxaspiro[4,4]nona-2,8-dien-4-ol,7-(2,4-hexadiyn-1-ylidene)-,4-acetate]														unstable
